The values below come from patent US10519169B2, “3-(1H-pyrrolo[2,3-C]pyridin-2-yl)-1 H-pyrazolo[4,3-B]pyridines and therapeutic uses thereof” (Samumed, LLC, priority 2015, dated 2019).

pEC50: −log10 of the molar value. Where only a bound is given, the exact number is not on record here.

Common to all, as to assay type: cell-based
Assay [1] relates to Wnt activity (Sp5-Luc reporter, TCF/LEF binding sites) in SW480 colon carcinoma cells. Briefly: Wnt activity screening assay, Sp5-Luc reporter gene in SW480 cells. The note with it: Homo sapiens; for pEC50: overnight incubation. The source says: The screening assay for Wnt activity is described as follows. Reporter cell lines can be generated by stably transducing cancer cell lines (e.g., colon cancer) or primary cells (e.g., IEC-6 intestinal cells) with a lentiviral construct that includes a Wnt-responsive promoter driving expression of the firefly luciferase gene.
SW480 colon carcinoma cells were transduced with a lentiviral vector expressing luciferase with a human Sp5 promoter consisting of a sequence of eight TCF/LEF binding sites. SW480 cells stably expressing the Sp5-Luc reporter gene and a hygromycin resistance gene were selected by treatment with 150 μg/mL of hygromycin for 7 days. These stably transduced SW480 cells were expanded in cell culture and used for all further screening activities. Each compound was dissolved in DMSO as a 10 mM stock and used to prepare compound source plates. Serial dilution (1:3, 10-point dose-response curves starting from 10 μM) and compound transfer was performed using the ECHO 550 (Labcyte, Sunnyvale, Calif.) into 384-well white solid bottom assay plates (Greiner Bio-One) with appropriate DMSO backfill for a final DMSO concentration of 0.1%. For Sp5-Luc reporter gene assays, the cells were plated at 4,000 cells/well in 384-well plates with medium containing 1% fetal bovine serum and incubated overnight at 37° C. and 5% CO2. Following incubation, 20 μl of BrightGlo luminescence reagent (Promega) was added to each well of the 384-well assay plates. The plates were placed on an orbital shaker for 2 min and then luminescence was quantified using the Envision (Perkin Elmer) plate reader. Readings were normalized to DMSO only treated cells, and normalized activities were utilized for EC50 calculations using the dose-response log (inhibitor) vs. response-variable slope (four parameters) nonlinear regression feature available in GraphPad Prism 5.0 (or Dotmatics). For EC50 of >10 μM, the percent inhibition at 10 μM is provided.
On the technique in general: Reporter assays use an easily measured gene product as a stand-in for the process of interest.

The subject of assay [2] is primary human fibroblasts derived from IPF patients (LL29 cells) treated with TGF-β1. Put plainly: Inhibition of fibrotic process, αSMA staining in TGF-β1 treated LL29 fibroblasts. The note with it: Fibroblast; for pEC50: 96 h, TGF-β1 20 ng/mL, 4 days, % cells positive for αSMA. The source says: Representative compounds were screened using primary human fibroblasts (derived from IPF patients) treated with TGF-β1 to determine their ability to inhibit the fibrotic process.
Primary human fibroblasts derived from IPF patients (LL29 cells) [^1Xiaoqiu Liu, et. al., “Fibrotic Lung Fibroblasts Show Blunted Inhibition by cAMP Due to Deficient cAMP Response Element-Binding Protein Phosphorylation”, Journal of Pharmacology and Experimental Therapeutics (2005), 315(2), 678-687; ^2Watts, K. L., et. al., “RhoA signaling modulates cyclin D1 expression in human lung fibroblasts; implications for idiopathic pulmonary fibrosis”, Respiratory Research (2006), 7(1), 88] were obtained from American Type Culture Collection (ATCC) and expanded in F12 medium supplemented with 15% Fetal Bovine Serum and Penicillin/Streptomycin.
Each compound was dissolved in DMSO as a 10 mM stock and used to prepare compound source plates. Serial dilution (1:2, 11-point dose-response curves from […] to […]) and compound transfer was performed using the ECHO 550 (Labcyte, Sunnyvale, Calif.) into 384-well clear bottom assay plates (Greiner Bio-One) with appropriate DMSO backfill for a final DMSO concentration of 0.1%. LL29 cells are plated at 1,500 cells/well in 80 μL/well F12 medium supplemented with 1% Fetal Bovine Serum. One hour after addition of the cells, TGF-β1 (Peprotech; 20 ng/mL) was added to the plates to induce fibrosis (ref. 1 and 2 above). Wells treated with TGF-β1 and containing DMSO were used as controls. Cells were incubated at 37° C. and 5% CO2 for 4 days. Following incubation for 4 days, SYTOX green nucleic acid stain (Life Technologies [Thermo Fisher Scientific]) was added to the wells at a final concentration of 1 μM and incubated at room temperature for 30 min. Cells were then fixed using 4% formaldehyde (Electron Microscopy Sciences), washed 3 times with PBS followed by blocking and permeabilization using 3% Bovine Serum Albumin (BSA; Sigma) and 0.3% Triton X-100 (Sigma) in PBS. Cells were then stained with antibody specific to α-smooth muscle actin (aSMA; Abcam) (ref. 1 and 2 above) in 3% Bovine Serum Albumin (BSA; Sigma) and 0.3% Triton X-100 (Sigma) in PBS, and incubated overnight at 4° C. Cells were then washed 3 times with PBS, followed by incubation with Alexa Flor-647 conjugated secondary antibody (Life Technologies [Thermo Fisher Scientific]) and DAPI at room temperature for 1 hour. Cells were then washed 3 times with PBS and plates were sealed for imaging. aSMA staining was imaged by excitation at 630 nm and emission at 665 nm and quantified using the Compartmental Analysis program on the CellInsight CX5 (Thermo Scientific). Dead or apoptotic cells were excluded from analysis based on positive SYTOX green staining. % of total cells positive for aSMA were counted in each well and normalized to the average of 11 wells treated with TGF-β1 on the same plate using Dotmatics' Studies Software. The normalized averages (fold change over untreated) of 3 replicate wells for each compound concentration were used to create dose-responses curves and EC50 values were calculated using non-linear regression curve fit in the Dotmatics' Studies Software. For EC50 of >10 μM, the percent inhibition at 10 μM is provided.

Assay [3] relates to SW480 colon cancer cells. Briefly: Cell viability assay (CellTiter-Blue), SW480 cells. The note with it: Homo sapiens, 96 h, four days, CellTiter-Blue. Here is the method: Representative compounds were screened using the following assay procedure to assess the effect on cell viability as described below.
Each compound was dissolved in DMSO as a 10 mM stock and used to prepare compound source plates. Serial dilution (1:3, 8-point dose-response curves from […]) and compound transfer was performed using the ECHO 550 (Labcyte, Sunnyvale, Calif.) into 96-well clear bottom, black-walled plates (Corning-Costar).
Approximately 2×10^3 SW480 colon cancer cells were seeded into each well and allowed to incubate in the presence or absence of compound for four days at 37° C./5% CO2. Eight replicates of DMSO-treated cells served as controls and cells treated with compound were performed in duplicate.
After incubation, 20 μL of CellTiter-Blue (Promega) was added to each well allowed to incubate for approximately 3 hours. This reagent was a buffered solution which contains resazurin, metabolically active cells were able to reduce rezarurin (blue) into resorufin (pink) which was highly fluorescent. This measured fluorescence was used as a readout for cell viability.
After incubation, the plates were read at Ex 560 nm Em 590 nm (Cytation 3, BioTek). Dose-response curves were generated and EC50 concentration values were calculated using non-linear regression curve fit in the GraphPad Prism (San Diego, Calif.) or Dotmatics' Studies Software (Bishops Stortford, UK). For EC50 of >10 μM, the percent inhibition at 10 μM is provided.

Assay [4] deals with IL-6. Put plainly: IL-6 inhibition in LPS-stimulated THP-1 cells (HTRF). To be noted: Homo sapiens; for pEC50: LPS 500 ng/mL, 22 hours, IL6 HTRF. Here is the method: Human monocyte cell line (THP-1 cells; Catalog # TIB-202, ATCC, Manassas, Va.) were cultured in Roswell Park Memorial Institute (RPMI) 1640 Medium (Catalog #21870-100, Buffalo, N.Y.) with 1% L-glutamine, 1% HEPES, 1% Sodium Pyruvate, 2% Sodium Bicarbonate supplemented with 100 units/mL penicillin, 50 μg/mL streptomycin, 2-mercaptoethanol (0.05 mM) [basal medium] and 10% fetal bovine serum (Catalog #16140089, Life Technologies, Carlsbad, Calif.) at 37° C. and 5% CO2.
THP-1 cells were cultured in basal media with 1% FBS for 24 hours before the start of the assay. Each compound was dissolved in DMSO as a 10 mM stock and used to prepare compound source plates. Serial dilution (1:3, 10-point dose-response curves starting from 10 μM) and compound transfer was performed using the ECHO 550 (Labcyte, Sunnyvale, Calif.) into 384-well white low volume assay plates (Greiner Bio-One) with appropriate DMSO backfill for a final DMSO concentration of 0.1%. THP-1 cells were plated at 5000 cells/well in the 384-well plates and incubated at 37° C. for 2 h. 500 ng/mL of LPS was added after 2 hours and cells were incubated for another 22 hours at 37° C. Plates were spun in a centrifuge for 1 minute at […] and a mixture of anti-IL6 XL665, and anti-IL6 Cryptate diluted in reconstitution buffer (Cisbio Inc.) was added to each well. Following incubation for 3 hrs at room temperature, Homogeneous Time-Resolved Fluorescence (HTRF) was measured using the Envision (Perkin Elmer) at 665 nm and […]. The ratio of fluorescence at 665 nm to 620 nm was used as a readout for IL6 quantification. All samples were processed in duplicate. Readings were normalized to DMSO treated cells and normalized activities were utilized for EC50 calculations using the dose-response log (inhibitor) vs. response-variable slope (four parameters) nonlinear regression feature available in GraphPad Prism 5.0 (or Dotmatics). For EC50 of >10 μM, the percent inhibition at […] is provided.
A general note: In TR-FRET formats the signal depends on donor and acceptor labels being close together.

Turning to `c1cc(-c2cncc3[nH]c(-c4n[nH]c5ccc(-c6cncc(CNCC7CCCC7)c6)nc45)cc23)co1` [Compound 333, 1-Cyclopentyl-N-((5-(3-(4-(furan-3-yl)-1H-pyrrolo[2,3-c]pyridin-2-yl)-1H-pyrazolo[4,3-b]pyridin-5-yl)pyridin-3-yl)methyl)methanamine], the inhibition (commonly the share of the control response that was lost under treatment) at 10 µM in assay [1] (given for EC50 >10 μM, 10 μM, read-out: percent inhibition at 10 μM) amounted to 25.5%. For the same molecule, the pEC50 (usually the negative decadic logarithm of the EC50, by convention in mol/L) in assay [1] was < 5.00; in assay [2], 5.82; in assay [3], 5.11; in assay [4], 6.34.

With `Cc1ccncc1-c1ccc2[nH]nc(-c3cc4c(-c5cccs5)cncc4[nH]3)c2n1` [Compound 341, 5-(4-Methylpyridin-3-yl)-3-(4-(thiophen-2-yl)-1H-pyrrolo[2,3-c]pyridin-2-yl)-1H-pyrazolo[4,3-b]pyridine], the pEC50 was 5.39 in assay [1], 6.28 in assay [2], 5.37 in assay [3] and 6.93 in assay [4].

As to `c1csc(-c2cncc3[nH]c(-c4n[nH]c5ccc(-c6ccncc6)nc45)cc23)c1` [Compound 354, 5-(Pyridin-4-yl)-3-(4-(thiophen-2-yl)-1H-pyrrolo[2,3-c]pyridin-2-yl)-1H-pyrazolo[4,3-b]pyridine], the pEC50 in assay [1] was 5.65; in assay [2], 5.93; in assay [3], 5.97; in assay [4], 5.24.

Regarding `CS(=O)(=O)NCc1cc(F)cc(-c2cncc3[nH]c(-c4n[nH]c5ccc(-c6cncc(CN7CCC(F)(F)C7)c6)nc45)cc23)c1` [Compound 502, N-(3-(2-(5-(5-((3,3-Difluoropyrrolidin-1-yl)methyl)pyridin-3-yl)-1H-pyrazolo[4,3-b]pyridin-3-yl)-1H-pyrrolo[2,3-c]pyridin-4-yl)-5-fluorobenzyl)methanesulfonamide], the pEC50 in assay [1] is 5.68; in assay [2] it was < 5.00; in assay [3], 5.51; in assay [4], 5.75. Further, the inhibition at 10 µM in assay [2] (given for EC50 >10 μM, TGF-β1, αSMA, 10 μM, read-out: percent inhibition at 10 μM) came out at 25.4%.

For the molecule `Fc1cccc(-c2cncc3[nH]c(-c4n[nH]c5ccc(-c6cncc(OCc7ccccc7)c6)nc45)cc23)c1` [Compound 518, 5-(5-(Benzyloxy)pyridin-3-yl)-3-(4-(3-fluorophenyl)-1H-pyrrolo[2,3-c]pyridin-2-yl)-1H-pyrazolo[4,3-b]pyridine], the pEC50 in assay [1] is 5.89; in assay [2], 5.92; in assay [3], 5.95; in assay [4], < 5.00. In addition, the inhibition at 10 µM in assay [4] (given for EC50 >10 μM, LPS, IL6, at 10 M [sic], read-out: percent inhibition at 10 M) is 35.5%.

In the case of `c1ncc(-c2ccc3[nH]nc(-c4cc5c(N6CCCCC6)cncc5[nH]4)c3n2)cc1OC1CCCCC1` [Compound 607, 5-(5-(Cyclohexyloxy)pyridin-3-yl)-3-(4-(piperidin-1-yl)-1H-pyrrolo[2,3-c]pyridin-2-yl)-1H-pyrazolo[4,3-b]pyridine], the pEC50 in assay [1] was 5.48; in assay [2] it was 6.70; in assay [3], 6.30; in assay [4] it was 5.63.

Regarding `CN(C)CCOc1cncc(-c2ccc3[nH]nc(-c4cc5ccncc5[nH]4)c3n2)c1` [Compound 659, 2-((5-(3-(1H-Pyrrolo[2,3-c]pyridin-2-yl)-1H-pyrazolo[4,3-b]pyridin-5-yl)pyridin-3-yl)oxy)-N,N-dimethylethan-1-amine], the pEC50 in assay [1] was 5.47; in assay [2], 5.38; in assay [3] it was 5.83; in assay [4], 5.83.
